Patent US9211313B2, “Methods and compound to inhibit Ca2+ permeable cation conductance” (priority 2011, dated 2015)
Where two headings read alike, the source gives them in different places. Where a SMILES comes first, the peptide text is derived from it. Bridges are numbered along the chain shown (N, C = ends). [ ]: non-standard residue; d: D form.

Tests used:
[1] = system: human SS red cells; experiment: Fluo-3 fluorescence measurement of [Ca2+]i after LPA; format: cell-based; conditions: 5 μM; 75 SS red cells
Source text: Fluorescence measurements of cytosolic [Ca^2+] ([Ca^2+]i): After removal of plasma and buffy coat by aspiration, human or mouse red cells were washed three times at room temperature and suspended in modified Hank's solution containing (in mM), 137 NaCl, 5.4 KCl, 1 CaCl2, 1 MgCl2, 0.8 NaK phosphate, 5.6 glucose, and 10 Na HEPES, pH 7.4. Dilute cell suspensions were settled on polylysine-coated coverslips forming the bottom of an open perfusion chamber (2.5 cm diameter, 1 cm depth) and washed again 3 times.
Measurement of relative changes in [Ca^2+]i by Fluo-3 fluorescence emission was previously validated in intact human (Yang et al. 2000, Blood, 95(7):2421-2425; Andrews et al. 2002, Blood, 199(9):3392-3399) and mouse red cells (Akel et al. 2007, Amer. J. Physiol., 292(5):C1759-1767). Attached red cells were loaded in the dark with the fluorescent non-ratiometric Ca^2+ indicator Fluo-3-AM (10 μM, Molecular Probes, Eugene, Oreg.) at 37° C. for 1 hr, then washed and incubated 15 min further to allow de-esterification of intracellular dye. […] Fluorescence emission (proportional to [Ca^2+]i) from a 535ds20 bandpass filter was collected from all attached single cells within the arbitrarily selected visual field. […]

[2] = system: LPA-induced cation conductance in human SS red cells; experiment: On-cell patch clamp of LPA-induced cation conductance; format: cell-based; conditions: 5 μM; Na methanesulfonate in bath and pipette, -Vp=-50 mV; n=8
Source text: On-cell patch clamp: Borosilicate pipettes (Corning 7052) pulled with a Narishige two stage puller or a Sutter P97 puller and fire-polished to resistances of 10-20 MΩ were front-filled and then backfilled. Symmetric bath and pipette solutions for studies of seal resistance stability during reversibility tests of the deoxygenation-activated conductance in SAD mouse red cells were (in mM) 140 NaCl, 4 KCl, 1 CaCl2, 1 MgCl2, 10 Na HEPES, pH 7.4. These conditions yielded tight seals in 13% of patch attempts on SAD cells. For study of deoxygenation-induced monovalent cation permeation in the absence of bath Ca^2+ and Mg^2+ recorded in SAD and Berkeley mouse cells and in human cells, symmetric bath and pipette solutions contained (in mM) 150 Na methanesulfonate, 10 Na EDTA, and 10 Na HEPES, pH 7.4. These conditions yielded tight seals in 16% of patch attempts on SAD mouse red cells, 26% of attempts on Berkeley mouse cells, and 30% of attempts on human SS cells. For study of Ca^2+ permeation in human SS cells, bath and pipette solutions contained (in mM) 100 CaCl2, 10 Na HEPES, pH 7.4. These conditions yielded tights seals on 44% of attempts. For all conditions tested in human red cells, 70% of tight seals were sustained through the solution change accompanying deoxygenation to allow recording of current activity.
On-cell patch currents were recorded with the Axopatch 1-D amplifier (Axon Instruments/Molecular Devices, Sunnyvale, Calif.). Holding potential was −Vp=−50 mV (expressed as the negative of the pipette potential (e.g., equivalent to the intracellular potential with respect to the pipette). To determine current-voltage relationships (I-V curves) in Fetchex or Clampex (PCLAMP, Axon Instruments), the realtime control window in gap-free mode was used to record current traces of 10-30 sec duration at holding potentials ranging from −100 to +100 mV, in 25 mV increments. The bath reference electrode was a silver chloride wire with a 3 M KCl agar bridge. Data was filtered at 500 Hz, digitized at 2 kHz by Clampex, and analyzed offline by Fetchan and Pstat or by Clampfit subroutines of PCLAMP. Holding potentials in on-cell patch experiments were expressed as −Vp, the negative of the pipette potential.
Deoxygenation-activated flickering cation conductance observed in human SS cells contrasted with the prolonged channel openings produced by 5 μM LPA (FIG. 10A). In SS cells, LPA increased NPo […], from 0.04±0.03 to 0.82±0.18 (n=8, p<0.001; Na methanesulfonate in bath and pipette, −Vp=−50 mV; FIG. 10B). LPA-induced cation conductance was 96% inhibited by 100 uM dipyridamole in the pipette, and 97% inhibited by 1 μM GsMTx-4 in the pipette (both n=4).

[3] = system: ferrets; experiment: Cardiovascular hemodynamics and EKG after IV injection in telemetered animals; format: in vivo, ferret; conditions: IV 0.2 to 5 mg/kg
Method: In another study, Cardiovascular hemodynamics and EKG was assessed after IV injection of D-GsMTx4 into telemetered free ranging ferrets in 4 cohorts of 3 animals over concentration ranging from 0.2 to 5 mg/kg at Covance Drug Development Company. This study was one of the main recommendations given us by the TACT advisory panel in Spring 2011. Particular attention was given to QT intervals, arterial pressure (mean, systolic and diastolic) and core temperature for 24 hours following IV injection.

[4] = system: mdx mice; experiment: Toxicity with daily subQ dosing for 30 days; format: in vivo, mouse; conditions: 5 mg/kg subQ daily, 30 days (month long)
Method: This example describes toxicity studies with GsMTx-4. In one experiment, D-GsMTx4 was administered to 60 mdx mice and controls by daily subQ dosing at 5 mg/kg for 30 days at the Washington D.C. Wellstone center.

[5] = system: mechanosensitive channel (MSC); conditions: cited from earlier work
[6] = Tissue distribution over 24 hrs after a single dosing; format: in vivo, mouse; conditions: for Tmax: mouse, blood, read-out: time of peak blood concentration
Method: This example describes the tissue distribution of GsMTx-4. Mice were dosed with D-GsMTx4 by three methods of administration and sacrificed at different time points over 24 hrs by Covance Drug Development Company. Tissues were harvested and sent frozen to Custom Biologics Company for concentration analysis. There were three animals per cohort and 7 time points distributed approximately logarithmically over 24 hours following a single dosing. We followed the distribution of peptide for three routes of administration −5 mg/kg IV, 50 mg/kg subQ and 50 mg/kg GI lavage. […] We sampled 7 different tissues including EDL muscle, diaphragm, brain, bladder, heart, liver and blood. […] Under both methods the peptide peaked in all tissues at about 2 hrs and plateaued for the 24 hr experiment duration. […] The distribution followed a pattern reflecting the relative capillary permeability of the tissue. […] Since the peptide has a strong partition coefficient to lipids, the mean concentration in the tissues is much lower than that in the membrane, the site of action.

[7] = system: neurite; experiment: Neurite initiation and neurite length; format: cell-based
Source text: The peptide GsMTx4 of the present invention can be prepared for pharmaceutical use by incorporation with a pharmaceutically acceptable carrier or diluent. The peptide can be formulated into tablets, capsules, caplets and the like. Suitable carriers for tablets include calcium carbonate, starch, lactose, talc, magnesium stearate and gum acacia. The peptide can also be formulated for oral, parenteral or intravenous administration in aqueous solutions, aqueous alcohol, glycol or oil solutions or emulsions. The peptide can also be formulated for inhaling by encapsulating to facilitate alveolar absorption as has been done for insulin (Inhale Therapeutic Systems, San Carlos, Calif., inhale.com). Pharmaceutical compositions suitable for such routes of administration are well known in the art. For example, suitable forms and compositions of pharmaceutical preparations can be found in Remington's Pharmaceutical Science, 1980, 15^thed. Mack Publishing Co., Easton, Pa. Thus, the peptide GsMTx4 can be administered orally, subcutaneously, parenterally, intravenously, intramuscularly or intranasally. The peptide may also be applied to medical devices that will come into contact blood. Both L and D enantiomers of GsMTx4's and its variants can be used for the present invention. We have previously shown that both L- and D-GsMTx4 block mechanosensitive channel (MSC) activity. Although, we have noted differences in the effects of these enantiomers, both forms are effective. For example, we have observed that the ability of the mirror image form (D-enantiomer) to inhibit mechanically activated ion channels is similar to the wild type peptide (L-form) (Suchyna et al 2004). […] Thus, both L and the D forms can be used in the present invention.

[8] = system: mice; experiment: Acute IV toxicity, observed for 1 hour, mice; format: in vivo, mouse
Method: In another experiment, mice were IV injected with D-GsMTx4 at 9, 5, 3, and 1 mg/kg concentrations and observed for 1 hour at Covance Drug Development Company. There were 3 mice injected per concentration. […] All mice appeared normal by 1 hour.

[9] = system: rats; experiment: Acute IV toxicity, observed for 1 hour, rats; format: in vivo, rat
Method: In another experiment, rats were IV injected with D-GsMTx4 at 9, 3, and 1 mg/kg concentrations and observed for 1 hour at Covance Drug Development Company. There were 3 rats injected for 3 and 1 mg/kg and 1 rat injected for 9 mg/kg concentration.

[10] = biological target: T1, KCa3.1 (Homo sapiens, UniProt O15554); conditions: 50 nM; cited from earlier work
T1 construct: KCa3.1 activity stimulated in intact human AA cells by 1 μM A23187; endogenous in cells; host or cells: intact human AA red blood cells
T1 sequence (O15554 whole entry): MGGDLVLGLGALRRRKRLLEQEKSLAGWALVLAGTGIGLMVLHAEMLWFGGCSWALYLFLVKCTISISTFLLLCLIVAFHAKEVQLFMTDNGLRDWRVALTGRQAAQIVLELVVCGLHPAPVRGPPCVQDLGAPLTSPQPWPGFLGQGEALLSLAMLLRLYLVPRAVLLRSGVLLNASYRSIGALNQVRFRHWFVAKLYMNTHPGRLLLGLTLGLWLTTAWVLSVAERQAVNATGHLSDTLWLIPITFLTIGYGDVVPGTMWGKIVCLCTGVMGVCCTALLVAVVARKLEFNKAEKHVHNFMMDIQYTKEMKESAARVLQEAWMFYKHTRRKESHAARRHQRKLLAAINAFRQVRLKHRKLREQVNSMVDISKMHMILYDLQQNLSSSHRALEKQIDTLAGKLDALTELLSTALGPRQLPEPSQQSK

[11] = biological target: deoxygenation-induced Ca2+-permeable cation conductance (Psickle-like)
[12] = biological target: lysophosphatidic acid (LPA)-activated cation-permeable channel in human SS red cells

lysophosphatidic acid [LPA]
effect on [Ca2+]i (Fluo-3 fluorescence) [1]: elevated | NPo after exposure [2]: 0.82±0.18 | increase in NPo [2]: 16 fold

CC(C)C[C@H]1NC(=O)[C@H](NC(=O)CN)CSSC[C@H]2NC(=O)[C@H]3CSSC[C@H](C(=O)N[C@H](CC(N)=O)C(=O)N[C@H](Cc4ccccc4)C(=O)N[C@H](CO)C(=O)N[C@H](Cc4ccccc4)C(N)=O)NC(=O)[C@@H](CC(C)C)NC(=O)[C@@H](CCCCN)NC(=O)[C@@H](Cc4ccccc4)NC(=O)[C@@H](CC(C)C)NC(=O)[C@@H](CCCCN)NC(=O)[C@@H](CO)NC(=O)[C@@H](CSSC[C@@H](NC(=O)[C@@H](CCCCN)NC(=O)[C@@H](Cc4c[nH]c5ccccc45)NC(=O)[C@@H](Cc4c[nH]c5ccccc45)NC(=O)[C@@H](Cc4ccccc4)NC(=O)[C@@H](CCC(=O)O)NC1=O)C(=O)N[C@H](CC(N)=O)C(=O)N1CCC[C@@H]1C(=O)N[C@H](CC(N)=O)C(=O)N[C@H](CC(=O)O)C(=O)N[C@H](CC(=O)O)C(=O)N[C@H](CCCCN)C(=O)N3)NC(=O)[C@@H](CCCCN)NC(=O)[C@@H](CC(C)C)NC(=O)[C@@H](CCCCN)NC(=O)[C@H]1CCCN1C(=O)[C@@H](CCCNC(=N)N)NC2=O [D-GsMTx4] (H-G[dC][dL][dE][dF][dW][dW][dK][dC][dN][dP][dN][dD][dD][dK][dC][dC][dR][dP][dK][dL][dK][dC][dS][dK][dL][dF][dK][dL][dC][dN][dF][dS][dF]-NH2; disulfide 2-17, 9-23, 16-30 (inferred); N-terminus and C-terminus assumed)
behavior changes [3]: no behavior changes | changes in QT intervals, arterial pressure and core temperature ([3]; 24 hours): No statistically significant changes | toxicity [4]: No apparent toxicity | ability to inhibit mechanically activated ion channels compared with wild type peptide (L-form) ([5]; Suchyna et al 2004): similar | effect on mechanosensitive channel (MSC) activity ([5]; previously shown): block | mortality ([6]; 5 mg/kg IV, 50 mg/kg subQ, 50 mg/kg GI lavage, 24 hour): No animals died | time of peak in all tissues ([6]; 5 mg/kg IV, mice): about 2 hrs | concentration in tissues ([6]; 50 mg/kg GI lavage, mice): almost no measurable concentration | time of peak in all tissues ([6]; 50 mg/kg subQ, mice): about 2 hrs | distribution pattern among tissues ([6]; IV and subQ, 7 tissues): liver received the most while brain received the least | course of tissue concentration after peak ([6]; IV and subQ, 24 hr): plateaued | course of blood concentration after peak ([6]; IV and subQ, over 24 hrs): decreased exponentially | Tmax ([6]; sc, 50 mg/kg subQ, mice): ≤ 2 h | Tmax ([6]; 5 mg/kg IV, mice): ≤ 2 h | effective half life of bound drug ([6]; suggested by the distribution data): very long | effect on neurite length [7]: no significant effect | neurite initiation [7]: did not stimulate | clinical signs ([8]; IV 9 mg/kg (highest dose), mice): slight tremors and decreased activity | duration of clinical signs after injection ([8]; IV 9 mg/kg, mice): ~0.5 h | mortality ([8]; IV 9, 5, 3 and 1 mg/kg, mice, 1 hour): No animals died | time by which all mice appeared normal ([8]; IV, all doses): ≤ 1 h | clinical signs ([9]; IV 9 mg/kg (highest dose), rat, remained for the 60 minute test duration): slow respiration, refusal to ambulate, decreased muscle tone | mortality ([9]; IV 9, 3 and 1 mg/kg, rats, 1 hour): No animals died

charybdotoxin
effect on A23187-stimulated 86Rb+ influx [10]: completely inhibited

Grammastola spatulata mechanotoxin 4 (GsMTx4) (peptide)
NPo of deoxygenation-induced cation conductance, on-cell patch on human SS red cells, Na methanesulfonate in pipette and bath [11]: 0.003 NPo | LPA-induced cation conductance (NPo), on-cell patch on human SS red cells [12]: 97 % inhibited
